Source: PMC9696494, “Garcixanthone E and Garcimangophenone C: New Metabolites from Garcinia mangostana and Their Cytotoxic and Alpha Amylase Inhibitory Potential” (Life, 2022)
pIC50: −log10 of the molar value.

Biological target: T1, α-amylase
T1 construct: gene AMY2A
Experiment: EnzChek Ultra Amylase assay kit, enzyme inhibition
Format: biochemical

COc1cc2oc3cc(O)c(/C=C/C(C)(C)O)c(O)c3c(=O)c2c(CC=C(C)C)c1OC [compound 1, 1,3-dihyroxy-6,7-dimethoxy-2-(3-hydroxy-3-methylbut-1-enyl)-8-(3-methylbut-2-enyl)-xanthone]
pIC50: 4.75

C[C@@H]1O[C@@H](Oc2cc(O)cc(O)c2C(=O)c2cccc(O)c2)[C@H](O)[C@H](O)[C@H]1O [compound 9, garcimangophenone C]
pIC50: 4.89
